Test results taken from PubChem BioAssay AID1963985 (Molecular Pharmacology Branch, DTP, NCI, 2024).

Tested on: 252836-082-R-J2-PDC tumor spheroids, viability
Experiment: Anticancer human tumor 252836-082-R-J2-PDC patient-derived head and neck squamous cell carcinoma cell line growth inhibition [PI3K]
Settings: spheroids with HUVEC and MSC; for IC50: curve of first compound; for viability, T/C: stronger effect = lower value
How it was run: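 Agents were dosed from a top concentration near clinical Cmax (otherwise 10 microM) in half-log decrements, alone or combined with PI3K inhibitors. The spheroids contain tumor cells plus endothelial (HUVEC) and MSC stroma; viability is measured.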
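Further: spheroids exposed to agents for seven days before readout.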
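Wherever viability, T/C is given: percent of vehicle DMSO control viability so 100% = untreated growth.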

Cn1cnc2c(F)c(Nc3ccc(Br)cc3Cl)c(C(=O)NOCCO)cc21 + Cc1nc(NC(=O)N2CCCC2C(N)=O)sc1-c1ccnc(C(C)(C)C(F)(F)F)c1
IC50 (second compound 0.0316 µM): > 3 µM | IC50 (second compound 0.1 µM): 2.41 µM | IC50 (second compound 0.316 µM): 1.46 µM | IC50 (second compound 1 µM): 0.554 µM | IC50 (second compound 3.16 µM): < 0.00949 µM | IC50 (second compound 10 µM): < 0.00949 µM | viability, T/C (second compound 0.0316 µM, first compound 0.00949 µM): 93% | viability, T/C (second compound 0.0316 µM, first compound 0.03 µM): 67.1% | viability, T/C (second compound 0.0316 µM, first compound 0.0949 µM): 83% | viability, T/C (second compound 0.0316 µM, first compound 0.3 µM): 82.7% | viability, T/C (second compound 0.0316 µM, first compound 0.949 µM): 61.2% | viability, T/C (second compound 0.0316 µM, first compound 3 µM): 58.4% | viability, T/C (second compound 0.1 µM, first compound 0.00949 µM): 79.9% | viability, T/C (second compound 0.1 µM, first compound 0.03 µM): 74.5% | viability, T/C (second compound 0.1 µM, first compound 0.0949 µM): 73.3% | viability, T/C (second compound 0.1 µM, first compound 0.3 µM): 85.1% | viability, T/C (second compound 0.1 µM, first compound 0.949 µM): 67.9% | viability, T/C (second compound 0.1 µM, first compound 3 µM): 45.4% | viability, T/C (second compound 0.316 µM, first compound 0.00949 µM): 66.9% | viability, T/C (second compound 0.316 µM, first compound 0.03 µM): 68.1% | viability, T/C (second compound 0.316 µM, first compound 0.0949 µM): 65.2% | viability, T/C (second compound 0.316 µM, first compound 0.3 µM): 68.3% | viability, T/C (second compound 0.316 µM, first compound 0.949 µM): 55.7% | viability, T/C (second compound 0.316 µM, first compound 3 µM): 37.5% | viability, T/C (second compound 1 µM, first compound 0.00949 µM): 61.7% | viability, T/C (second compound 1 µM, first compound 0.03 µM): 50.1% | viability, T/C (second compound 1 µM, first compound 0.0949 µM): 51% | viability, T/C (second compound 1 µM, first compound 0.3 µM): 47.6% | viability, T/C (second compound 1 µM, first compound 0.949 µM): 50.1% | viability, T/C (second compound 1 µM, first compound 3 µM): 28.9% | viability, T/C (second compound 3.16 µM, first compound 0.00949 µM): 45.8% | viability, T/C (second compound 3.16 µM, first compound 0.03 µM): 45.6% | viability, T/C (second compound 3.16 µM, first compound 0.0949 µM): 32.2% | viability, T/C (second compound 3.16 µM, first compound 0.3 µM): 35.8% | viability, T/C (second compound 3.16 µM, first compound 0.949 µM): 25.8% | viability, T/C (second compound 3.16 µM, first compound 3 µM): 13.8% | viability, T/C (second compound 10 µM, first compound 0.00949 µM): 26.7% | viability, T/C (second compound 10 µM, first compound 0.03 µM): 29.4% | viability, T/C (second compound 10 µM, first compound 0.0949 µM): 25.8% | viability, T/C (second compound 10 µM, first compound 0.3 µM): 19.4% | viability, T/C (second compound 10 µM, first compound 0.949 µM): 14.2% | viability, T/C (second compound 10 µM, first compound 3 µM): 5.98%
